Source: patent publication US8178683B2, “Antimicrobial ortho-fluorophenyl oxazolidinones for treatment of bacterial infections” (Micurx Pharmaceuticals, Inc., priority 2007, dated 2012)
pIC50: −log10 of the molar value. Converted amounts (≈) assume the structure as drawn. “And” between values parts separate entries of the source, which are not always exact repeats. Equal entries are not always repeated.

Key:
[1] = tested on: methicillin-resistant Staphylococcus aureus (MRSA); assay: Minimum inhibitory concentration (MIC) against MRSA clinical isolate; assay type: cell-based; conditions: clinical isolate of MRSA from the Massachusetts General Hospital
Excerpt: Compounds of this invention can have useful activity against a variety of pathogenic microorganisms. The in vitro activity of compounds of this invention can be assessed by standard testing procedures such as the determination of minimum inhibitory concentration (MIC) by agar dilution as described in “Approved Standard. Methods for Dilution Antimicrobial Susceptibility Tests for Bacteria That Grow Aerobically”, 3rd. ed., published 1993 by the National Committee for Clinical Laboratory Standards, Villanova, Pa., USA. Minimum inhibitory concentration (MIC) refers to the lowest concentration of drug (μg/mL) that inhibits visible growth of the organism. Lower MIC values indicate a higher antibacterial activity. Typically, compounds of present invention have useful potency against Gram-positive or Gram-negative pathogens with MIC values of ≦16 μg/mL. The useful activity of compounds of the present invention against a clinical isolate of methicillin-resistant Staphylococcus aureus (MRSA; from the Massachusetts General Hospital, USA) is illustrated by the MIC data of Table 1.

[2] = biological target: T1, Human monoamine oxidase (MOA) A type enzyme (Homo sapiens, UniProt P21397); assay: MAO-Glo monoamine oxidase A enzyme inhibition assay; assay type: biochemical; conditions: human MAO A enzyme (BD Gentest), MAO-Glo kit; Linezolid value of side-by-side test in parenthesis
T1 construct: purchased BD Gentest
T1 sequence (P21397 1-527): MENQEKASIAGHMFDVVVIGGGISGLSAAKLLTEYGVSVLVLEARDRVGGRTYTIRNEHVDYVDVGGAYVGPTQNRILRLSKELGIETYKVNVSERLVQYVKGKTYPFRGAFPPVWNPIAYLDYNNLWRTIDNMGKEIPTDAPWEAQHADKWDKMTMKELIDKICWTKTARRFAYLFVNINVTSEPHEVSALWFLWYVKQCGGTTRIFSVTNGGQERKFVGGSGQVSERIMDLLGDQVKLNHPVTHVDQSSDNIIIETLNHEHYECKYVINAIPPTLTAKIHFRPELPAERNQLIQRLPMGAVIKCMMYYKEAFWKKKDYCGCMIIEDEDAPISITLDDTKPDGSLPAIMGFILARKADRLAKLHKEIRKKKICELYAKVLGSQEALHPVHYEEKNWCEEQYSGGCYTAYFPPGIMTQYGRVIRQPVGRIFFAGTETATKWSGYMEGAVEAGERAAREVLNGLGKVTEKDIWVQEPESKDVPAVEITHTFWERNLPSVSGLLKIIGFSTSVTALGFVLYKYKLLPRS
Description: Human monoamine oxidase (MOA) A type enzyme inhibition activity for select compounds was measured using a commercial MAO assay kit MAO-Glo™ from Promega Co. (USA). The assay was performed as described in the company's technical bulletin “MAO-Glo™ Assay”. The protocol involves an incubation of the MAO A enzyme (BD Gentest™) with a luminogenic MAO substrate to produce an enzymatic product which is converted to luciferin by a coupled reaction. The released luciferin undergoes further transformation to generate light that is detected and measured. The amount of the light is directly proportional to the activity of MAO. Percent inhibition at several concentrations is established relative to the uninhibited control rate, and the IC50 (μg/mL) values are calculated. […] The MAO inhibition data for select compound of this invention are illustrated in the Table 2 below.

[3] = tested on: human CD34+ bone marrow cells; assay: Myelosuppressive potential: bone marrow CD34+ cell growth inhibition, luminescence assay; assay type: cell-based; conditions: 9-10 days at 37° C., Linezolid value of side-by-side test in parenthesis; for IC50: Homo sapiens, CD34+ cell
Description: Myelosuppressive potential (hematopoietic or bone marrow toxicity) was evaluated using human CD34^+ bone marrow cells, generally following methods described by Leach in International Patent Publication No. WO 2006/097828. Thus, an oxazolidinone compound was incubated with fresh human bone marrow cells for 9-10 days at 37° C. in 5% CO2 atmosphere. At end of the incubation period, the bone marrow toxicity was accessed by measuring inhibition (IC50, μg/mL) of CD34^+ cell growth using a luminescence assay. Lower IC50 value indicates a higher myelosuppression potential with enhanced probability of undesired adverse effects in vivo, while a higher IC50 value indicates reduced bone marrow toxicity. The CD34^+ inhibition data for representative compounds of this invention are illustrated in the Table 2 below.

| SMILES | MIC [1] | further results |
| --- | --- | --- |
| O=C1C=CN(c2c(F)cc(N3C[C@H](CO)OC3=O)c(F)c2F)CC1 [Example 1] | 4 mg/L (≈ 11.7 µM) |  |
| Cc1cc(NC[C@H]2CN(c3cc(F)c(N4C=CC(=O)CC4)c(F)c3F)C(=O)O2)no1 [Example 6] | 4 mg/L (≈ 9.47 µM) |  |
| Cc1cn(C[C@H]2CN(c3cc(F)c(N4C=CC(=O)CC4)c(F)c3F)C(=O)O2)nn1 [Example 8] | 4 mg/L (≈ 9.82 µM) |  |
| Cc1cn(C[C@H]2CN(c3ccc(N4C=CC(=O)CC4)c(F)c3F)C(=O)O2)nn1 [Example 12] | 4 mg/L (≈ 10.3 µM) |  |
| O=C1C=CN(c2ccc(N3C[C@H](COc4ccon4)OC3=O)c(F)c2F)CC1 [Example 16] | 4 mg/L (≈ 10.2 µM) |  |
| CC(=O)NC[C@H]1CN(c2cc(F)c(N3C=CC(=O)CC3)cc2F)C(=O)O1 [Example 17] | 4 mg/L (≈ 10.9 µM) |  |
| O=C1C=CN(c2cc(F)c(N3C[C@H](Cn4ccnn4)OC3=O)cc2F)CC1 [Example 18] | 4 mg/L (≈ 10.7 µM) |  |
| N#Cc1cn(C[C@H]2CN(c3cc(F)c(N4C=CC(=O)CC4)c(F)c3F)C(=O)O2)nn1 [Example 19] | 4 mg/L (≈ 9.56 µM) |  |
| O=C1C=CN(c2c(F)cc(N3C[C@H](Cn4cc(F)nn4)OC3=O)c(F)c2F)CC1 [Example 20] | 4 mg/L (≈ 9.72 µM) |  |
| O=C1C=CN(c2ccc(N3C[C@H](Cn4ccnn4)OC3=O)cc2F)CC1 [Example 25, reference compound] |  | pIC50 [2]: 5.30; IC50 [3]: 2.6 mg/L (≈ 7.28 µM) |
| CC(=O)NC[C@H]1CN(c2cc(F)c(N3CCOCC3)c(F)c2F)C(=O)O1 [Example 26, reference compound] | 2 mg/L (≈ 5.36 µM) |  |
| CC(=O)NC[C@H]1CN(c2ccc(N3CCOCC3)c(F)c2)C(=O)O1 [Linezolid, linezolid, reference compound] | 2 mg/L (≈ 5.93 µM) | pIC50 [2]: 4.95; CD34 IC50 [3]: Range 7.9-14.0 μg/mL; CD34 IC50 ([3]; listed as Lin.): 14.0 mg/L and 8.1 mg/L; IC50 [3]: 7.9 mg/L (≈ 23.4 µM) |

The remaining compounds from weak to strong by MIC [1], led by results:

| MIC [1] | SMILES | further results |
| --- | --- | --- |
| 2 mg/L (≈ 5.22 µM) | CC(=O)NC[C@H]1CN(c2cc(F)c(N3C=CC(=O)CC3)c(F)c2F)C(=O)O1 [Example 2] | pIC50 [2]: 3.83; IC50 [3]: 13.2 mg/L (≈ 34.4 µM) |
| 2 mg/L (≈ 5.01 µM) | COC(=O)NC[C@H]1CN(c2cc(F)c(N3C=CC(=O)CC3)c(F)c2F)C(=O)O1 [Example 4] | pIC50 [2]: 4.26; IC50 [3]: 17.7 mg/L (≈ 44.3 µM) |
| 2 mg/L (≈ 5.03 µM) | CCC(=O)NC[C@H]1CN(c2cc(F)c(N3C=CC(=O)CC3)c(F)c2F)C(=O)O1 [Example 7] |  |
| 2 mg/L (≈ 6.17 µM) | O=C1C=CN(c2ccc(N3C[C@H](CO)OC3=O)c(F)c2F)CC1 [Example 10] |  |
| 2 mg/L (≈ 5.27 µM) | CCC(=O)NC[C@H]1CN(c2ccc(N3C=CC(=O)CC3)c(F)c2F)C(=O)O1 [Example 15] |  |
| 2 mg/L (≈ 4.55 µM) | Cn1nnc(-c2ccc(-c3cc(F)c(N4C[C@H](Cn5ccnn5)OC4=O)cc3F)cn2)n1 [Example 21] |  |
| 1 mg/L (≈ 2.54 µM) | O=C1C=CN(c2c(F)cc(N3C[C@H](Cn4ccnn4)OC3=O)c(F)c2F)CC1 [Example 3] |  |
| 1 mg/L (≈ 2.45 µM) | O=C1C=CN(c2c(F)cc(N3C[C@H](CNc4ccon4)OC3=O)c(F)c2F)CC1 [Example 5] | pIC50 [2]: 4.52; IC50 [3]: 15.7 mg/L (≈ 38.4 µM) |
| 1 mg/L (≈ 2.74 µM) | CC(=O)NC[C@H]1CN(c2ccc(N3C=CC(=O)CC3)c(F)c2F)C(=O)O1 [Example 9] |  |
| 1 mg/L (≈ 2.66 µM) | O=C1C=CN(c2ccc(N3C[C@H](Cn4ccnn4)OC3=O)c(F)c2F)CC1 [Example 11] |  |
| 1 mg/L (≈ 2.62 µM) | COC(=O)NC[C@H]1CN(c2ccc(N3C=CC(=O)CC3)c(F)c2F)C(=O)O1 [Example 13] | pIC50 [2]: 4.35; IC50 [3]: 6.3 mg/L (≈ 16.5 µM) |
| 1 mg/L (≈ 2.58 µM) | Cn1nnnc1-c1ccc(-c2ccc(N3C[C@H](CO)OC3=O)c(F)c2F)cn1 [Example 22] |  |
| 1 mg/L (≈ 2.25 µM) | COC(=O)NC[C@H]1CN(c2ccc(-c3ccc(-c4nnnn4C)nc3)c(F)c2F)C(=O)O1 [Example 23] |  |
| 0.25 mg/L (≈ 0.64 µM) | O=C1C=CN(c2ccc(N3C[C@H](CNc4ccon4)OC3=O)c(F)c2F)CC1 [Example 14] |  |
